Results as given in patent publication US10398689B2, “Benzopiperidine derivative, preparation method thereof and medical use thereof” (Jiangsu Hengrui Medicine Co., Ltd., priority 2015, dated 2019).

Tests used:
ER (estrogen receptor) = biological target: T1, ER (estrogen receptor) (Homo sapiens, UniProt P03372); assay: Inhibition of the binding of estrogen (E) to estrogen receptor (ER), MCF-7/ERE-luciferase reporter cells; type: cell-based; details: MCF-7/ERE-luciferase cells, 0.1 nM estradiol, 24 hours, chemiluminescence; read-out: IC50 value of inhibition effect on the binding of E to ER
T1 construct: MCF-7/ERE-luciferase monoclonal cells were selected by transfection of MCF-7; host or cells: MCF-7/ERE-luciferase (only the ERE-luciferase reporter was transfected)
T1 sequence (P03372 1-595): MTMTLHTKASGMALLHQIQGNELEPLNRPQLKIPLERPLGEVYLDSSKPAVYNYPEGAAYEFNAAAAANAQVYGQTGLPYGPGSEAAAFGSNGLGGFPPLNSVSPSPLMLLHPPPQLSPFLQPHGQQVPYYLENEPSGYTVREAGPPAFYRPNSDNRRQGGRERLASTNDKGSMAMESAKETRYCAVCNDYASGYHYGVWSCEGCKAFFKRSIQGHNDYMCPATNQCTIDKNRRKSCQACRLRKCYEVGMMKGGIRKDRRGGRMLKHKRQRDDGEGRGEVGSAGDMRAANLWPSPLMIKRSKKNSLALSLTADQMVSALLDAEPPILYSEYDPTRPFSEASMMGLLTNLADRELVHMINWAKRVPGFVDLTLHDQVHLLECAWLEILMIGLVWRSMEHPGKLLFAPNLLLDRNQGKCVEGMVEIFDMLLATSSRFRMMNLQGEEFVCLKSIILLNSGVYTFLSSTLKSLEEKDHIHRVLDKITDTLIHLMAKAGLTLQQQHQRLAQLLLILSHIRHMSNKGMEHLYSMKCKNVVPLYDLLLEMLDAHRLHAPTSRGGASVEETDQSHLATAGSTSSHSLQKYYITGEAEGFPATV
Method: The compounds of the present invention have an inhibition effect on the binding of E (estrogen) to ER (estrogen receptor), thereby blocking the binding of a complex of E and ER complex to ERE (estrogen responsive element), and subsequently blocking the expression of downstream luciferase protein.
The inhibition effect of the compounds on the binding of E to ER in vitro was tested by the following method.
The object of this experiment was to determine the inhibition effect of the compounds on the binding of E to ER, and the in vitro activity of the compounds was evaluated according to the IC50 values.
ERE was cloned into the upstream of the luciferase gene, and MCF-7/ERE-luciferase monoclonal cells were selected by transfection of MCF-7 (Cell Bank of Chinese Academy of Sciences typical culture preservation Committee, TCHu74). MCF-7/ERE-luciferase cells were inoculated into the MEM medium (hyclone, SH30024.01B) containing 10% charcoal stripped FBS (Moregate, FBSF), 1% sodium pyruvate (Sigma, S8636), 1% nonessential amino acids (Sigma, M7145) and 500 μg/ml G418 in a 96-well plates with a density of 30,000 cells/well, and the cells were incubated under the conditions of 37° C., and 5% CO2. The drug was prepared as a 20 mM stock solution that was later diluted with 100% DMSO in 10 fold concentration gradient, and then diluted 20-fold with the medium DMEM. After incubation for 24 hours, the medium was removed, then 0.1 nM estradiol (Sigma, E2758) and 10 μl of the drug diluted with the medium were added to each well, and the control group was added with DMSO. The plate was gently shaken and incubated in a incubator at 37° C., 5% CO2. After 24 hours, the cell culture medium was discarded, Then, 50 μl of the prepared luciferase substrate (Promega, E6110) was added to each well, and the plate was placed in the dark at room temperature for 10-15 minutes, then the chemiluminescence signal value was determined.
The inhibition effect of the compounds of the present invention on the binding of E to ER was tested by the experiment described above. The values of the chemiluminescence signal vs the logarithmic concentrations of the compounds were plotted using Graphpad Prism, and the measured IC50 values are shown in Table 1.

MCF7 cells = assay: Inhibition of the proliferation of MCF7 cells (Cell Titer-Glo); type: cell-based; details: Homo sapiens, MCF-7 cells, 72 hours, read-out: IC50 value of inhibition effect on the proliferation of MCF7 cells
Method: The object of this experiment was to determine the inhibition effect of the compounds on the proliferation activity of MCF7 cells, and the in vitro activity of the compounds was evaluated according to the IC50 values.
MCF-7 cells (Cell Bank of Chinese Academy of Sciences typical culture preservation Committee, TChu 74) were inoculated into the MEM medium (Hyclone, SH30024.01B) containing 10% FBS (Gibco, 10099-141), 1% sodium pyruvate (Sigma, S8636), and 1% nonessential amino acids (Sigma, M7145) in a 96-well plate with a density of 40,000 cells/well, and the cells were incubated under the conditions of 37° C., and 5% CO2. The compound was prepared as a 20 mM stock solution that was later diluted to 1000× final concentration with 100% DMSO, and then diluted with 20-fold medium containing 2% FBS. After incubation for 24 hours, the medium was removed and 90 μl of the medium containing 2% FBS and 10 μl of the drug were added to each well, 10 […] of DMSO was added to the control group, and the blank group contained only 100 μl medium containing 2% FBS. The plate was gently shaken and incubated in a incubator at 37° C., 5% CO2. After 72 hours later, 50 μl of mixed Cell Titer-Glo (Promega, G7571) was added to each well. The plate was shaken until the ingredients were mixed uniformly, and placed at room temperature for 10 minutes, then the chemiluminescence signal value was determined. The inhibition effect of the compound AZD9496 at 100 nM on the proliferation of MCF-7 cells was set to 100%, the maximum inhibition rate of other compounds=(chemiluminescence signal valuenegative control−chemiluminescence signal valuecompound 100 nm)/(chemiluminescence signal valuenegative control−chemiluminescence signal valueAZD9496 100 nm)×100%, and the negative control was a well with 0.5% DMSO.
The values of the chemiluminescence signals vs the logarithmic concentrations of the compounds were plotted using Graghpad Prism to obtain the IC50 values.

[1] = Pharmacokinetics assay in BALB/C nude mice after intragastrical administration; type: in vivo; details: female, mouse, po, 3 mg/kg, plasma; for Vd/F: read-out: Apparent Distribution Volume Vz/F; for AUC: read-out: Area Under Curve AUC; for CL/F: read-out: Clearance CL/F; for half-life: read-out: Half-Life t1/2 (converted); for MRT: read-out: Mean Residence Time MRT; for Cmax: read-out: Plasma Conc. Cmax
Method: BALB/C nude mice were used as test animals. The drug concentration in plasma at different time points was determined by LC/MS/MS after intragastrical administration of the compounds of Examples 1, 7, 8, 10, 11, 14, 16, 39 and 42 to BALB/C nude mice. The pharmacokinetic behavior of the compounds of the compounds of the present invention was studied and evaluated in BALB/C nude mice.
Eighty-one (81) female BALB/C nude mice, were equally divided into 9 groups, which were purchased from SINO-BRITSH SIPPR/BK LAB. ANIMAL LTD., CO, with Certificate No.: SOCK (Shanghai) 2008-0016.
The appropriate amount of each test compound was weighed, and successively added with 9% PEG400+0.5% tween 80+0.5% PVP+90% aqueous solution of 0.5% CMC.
After an overnight fasting, 81 female BALB/C nude mice were equally divided into 9 groups; and administered the test compounds intragastrically at an administration volume of 0.2 mL/10 g.
81 female Balb/C nude mice were administered the test compounds intragastrically after an overnight fasting. Blood (0.1 mL) was taken (3 animals at each time point) at 0.5, 1.0, 2.0, 4.0, 6.0, 8.0, 11.0, and 24.0 h after administration. The samples were stored in heparinized test tubes, and centrifuged for 10 minutes at 3,500 rpm to separate the blood plasma. The plasma samples were stored at −20° C.
The concentration of the prototype drug in the plasma and in the solution to be administered was determined by liquid chromatography tandem mass spectrometry (LC/MS MS).

Structure (SMILES) | IC50 (ER (estrogen receptor)) | IC50 (MCF7 cells) | Vd/F [1] | AUC [1] | CL/F [1] | half-life [1] | MRT [1] | Cmax [1]
CC1Cc2cc(-c3cnn(C)c3)ccc2C(c2ccc(/C=C/C(=O)O)cc2)N1c1ccc(C2CC2)cc1 [Example 10, (E)-3-(4-((1R,3R/1S,3S)-2-(4-Cyclopropylphenyl)-3-methyl-6-(1-methyl-1H-pyrazol-4-yl)-1,2,3,4-tetrahydroisoquinolin-1-yl)phenyl)acrylic acid] | 1.07 nM | 0.3 nM | 3.18 L/kg | 6280 ng·h/mL | 7.96 mL/min/kg | 4.61 h | 7.08 h | 1070 ng/mL
CC(C)c1ccc(N2C(C)Cc3cc(-c4cnn(C)c4)ccc3C2c2ccc(/C=C/C(=O)O)cc2)cc1 [Example 16, (E)-3-(4-((1R,3R/1S,3S)-2-(4-Isopropylphenyl)-3-methyl-6-(1-methyl-1H-pyrazol-4-yl)-1,2,3,4-tetrahydroisoquinolin-1-yl)phenyl)acrylic acid] | 2.15 nM | 0.93 nM | 1.43 L/kg | 9120 ng·h/mL | 5.48 mL/min/kg | 3.01 h | 4.87 h | 1560 ng/mL
CC1Cc2cc(-c3cn[nH]c3)ccc2C(c2ccc(/C=C/C(=O)O)cc2)N1c1ccc(C2CC2)cc1 [Example 36, (E)-3-(4-((1R,3R/1S,3S)-2-(4-cyclopropylphenyl)-3-methyl-6-(1H-pyrazol-4-yl)-1,2,3,4-tetrahydroisoquinolin-1-yl)phenyl)acrylic acid] | 5.63 nM | 2.8 nM |  |  |  |  |  | 
Cc1ccc(N2C(C)Cc3cc(-c4cnn(C)c4)ccc3C2c2ccc(/C=C/C(=O)O)cc2)c(C)c1 [Example 37, (E)-3-(4-((1R,3R/1S,3S)-2-(2,4-Dimethylphenyl)-3-methyl-6-(1-methyl-1H-pyrazol-4-yl)-1,2,3,4-tetrahydroisoquinolin-1-yl)phenyl)acrylic acid] | 0.84 nM | 1.74 nM |  |  |  |  |  | 
CCn1cc(-c2ccc3c(c2)C[C@@H](C)N(c2ccc(C(C)C)cc2)[C@@H]3c2c(F)cc(/C=C/C(=O)O)cc2F)cn1 [Example 38, (E)-3-(4-((1S,3R)-6-(1-Ethyl-1H-pyrazol-4-yl)-2-(4-isopropylphenyl)-3-methyl-1,2,3,4-tetrahydroisoquinolin-1-yl)-3,5-difluorophenyl)acrylic acid] | 0.18 nM | 0.38 nM |  |  |  |  |  | 
CC(C)c1ccc(N2[C@H](c3c(F)cc(/C=C/C(=O)O)cc3F)c3ccc(-c4cnn(C)c4)cc3C[C@H]2C)cc1 [Example 39, (E)-3-(3,5-Difluoro-4-((1S,3R)-2-(4-isopropylphenyl)-3-methyl-6-(1-methyl-1H-pyrazol-4-yl)-1,2,3,4-tetrahydroisoquinolin-1-yl)phenyl)acrylic acid] | 0.17 nM | 0.42 nM | 1.53 L/kg | 10200 ng·h/mL | 4.92 mL/min/kg | 3.6 h | 7.02 h | 1760 ng/mL
CC1Cc2cc(-c3cnn(C)c3)ccc2C(c2ccc(/C=C/C(=O)O)cc2)N1c1ccc(CC2CC2)cc1 [Example 47, (E)-3-(4-((1R,3R/1S,3S)-2-(4-(Cyclopropylmethyl)phenyl)-3-methyl-6-(1-methyl-1H-pyrazol-4-yl)-1,2,3,4-tetrahydroisoquinolin-1-yl)phenyl)acrylic acid] | 5.39 nM | 4.9 nM |  |  |  |  |  | 
CC(C)c1ccc(N2C(C)Cc3cc(-c4cn[nH]c4)ccc3C2c2ccc(/C=C/C(=O)O)cc2)cc1 [Example 48, (E)-3-(4-((1R,3R/1S,3S)-2-(4-Isopropylphenyl)-3-methyl-6-(1H-pyrazol-4-yl)-1,2,3,4-tetrahydroisoquinolin-1-yl)phenyl)acrylic acid] | 0.71 nM | 0.59 nM |  |  |  |  |  | 
CC(C)c1ccc(N2C(C)Cc3cc(-c4cnn(C(F)F)c4)ccc3C2c2ccc(/C=C/C(=O)O)cc2)cc1 (stereo not drawn) [Example 49] | 3.46 nM | 1.04 nM |  |  |  |  |  | 
